This passage reports IC50 results from ChEMBL document CHEMBL1201862, “PubChem BioAssay data set” (2004).

The IC50 is the concentration at which inhibition is half-maximal.

The assay concerns the target Envelope glycoprotein gp160 (Human immunodeficiency virus 1, UniProt Q6QLK5). The assay can be described thus: cell-free HIV fusion peptide-binding blockers – biochemical, uHTS, fluorescence dequenching, […] (AID 1986).

The source made the active and inactive calls. No stated cut-off is given here; in the data, actives have a measured IC50 and inactives only a lower limit.

Sequence of Envelope glycoprotein gp160 (Q6QLK5 whole entry, the tested form may be a part): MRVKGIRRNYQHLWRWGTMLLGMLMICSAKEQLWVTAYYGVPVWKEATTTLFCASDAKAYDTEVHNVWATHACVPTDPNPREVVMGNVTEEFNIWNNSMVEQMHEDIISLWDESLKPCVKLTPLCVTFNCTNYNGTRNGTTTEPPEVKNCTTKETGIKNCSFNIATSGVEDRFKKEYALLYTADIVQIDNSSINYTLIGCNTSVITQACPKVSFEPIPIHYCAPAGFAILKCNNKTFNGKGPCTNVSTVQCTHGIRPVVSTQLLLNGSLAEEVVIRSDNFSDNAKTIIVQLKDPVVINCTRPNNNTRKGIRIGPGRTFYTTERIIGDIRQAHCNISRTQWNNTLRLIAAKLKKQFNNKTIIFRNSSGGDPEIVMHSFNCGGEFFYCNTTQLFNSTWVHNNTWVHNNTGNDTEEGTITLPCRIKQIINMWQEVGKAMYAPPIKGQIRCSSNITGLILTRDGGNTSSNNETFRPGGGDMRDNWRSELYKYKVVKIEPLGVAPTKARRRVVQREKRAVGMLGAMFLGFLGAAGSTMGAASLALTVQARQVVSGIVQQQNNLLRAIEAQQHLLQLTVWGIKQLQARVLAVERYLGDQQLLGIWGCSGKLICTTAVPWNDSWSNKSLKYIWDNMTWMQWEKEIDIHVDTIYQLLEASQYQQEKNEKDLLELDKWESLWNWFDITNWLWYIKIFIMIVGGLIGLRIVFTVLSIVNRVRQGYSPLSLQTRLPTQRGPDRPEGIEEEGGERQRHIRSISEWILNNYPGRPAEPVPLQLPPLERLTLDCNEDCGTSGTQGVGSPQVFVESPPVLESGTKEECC

`Oc1c(Br)cc(Br)c(/C=N/n2c(S)nnc2-c2ccccc2)c1Br`: the IC50 is 12 µM (active).
